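A five-concentration, 48-hour dose response in 96-well plates underlies each endpoint, interpolated linearly between surrounding concentrations. The concentration for full growth arrest is given as TGI.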 Where a SMILES comes first, the peptide text is derived from it.
Key:
Assay in all cases: DTP human tumour cell line panel, 48 h
[1] = system: ACHN renal
[2] = system: M14 melanoma
[3] = system: NCI-H460 lung
[4] = system: OVCAR-8 ovarian
[5] = system: SR leukemia
[6] = system: DU-145 prostate
[7] = system: RXF 393 renal
[8] = system: KM12 colon
[9] = system: EKVX NSCLC
[10] = system: MDA-MB-435
[11] = system: PC-3 prostate
[12] = system: SK-MEL-5 melanoma
[13] = system: SF-539 CNS
[14] = system: SK-MEL-28 melanoma
[15] = system: HL-60(TB) leukemia
[16] = system: COLO 205 colon
[17] = system: SN12C renal
[18] = system: UO-31 renal
[19] = system: NCI-H23 lung
[20] = system: MDA-N

| Structure (SMILES) | TGI [1] | TGI [2] | TGI [3] | TGI [4] | TGI [5] | TGI [6] | TGI [7] | TGI [8] | TGI [9] | TGI [10] | TGI [11] | TGI [12] | TGI [13] | TGI [14] | TGI [15] | TGI [16] | TGI [17] | TGI [18] | TGI [19] | TGI [20] |
| --- | --- | --- | --- | --- | --- | --- | --- | --- | --- | --- | --- | --- | --- | --- | --- | --- | --- | --- | --- | --- |
| CCOc1cc2c(cc1O)C=C[C@@H]1[C@@H]2CC[C@]2(C)[C@@H](O)CC[C@@H]12 | > 100 µM | 28 µM | 12.5 µM | > 62.4 µM | 23.7 µM | 26.8 µM | > 96.1 µM | 20.9 µM | > 100 µM | 1.36 µM | > 100 µM | 23.6 µM | 7.03 µM | > 100 µM | 7.58 µM | 47.2 µM | > 77.3 µM | > 86.1 µM | > 48.1 µM | > 100 µM |
| COc1ccc(N[C@H](CS(=O)c2ccc(C)cc2)C(F)(F)F)cc1 (stereo not given in full) | > 100 µM | > 100 µM | > 100 µM | > 100 µM | > 100 µM | > 100 µM | > 100 µM | > 100 µM | > 100 µM | > 100 µM | > 100 µM | > 100 µM | > 100 µM | > 100 µM | > 100 µM | > 100 µM | > 100 µM | > 100 µM | > 100 µM | > 100 µM |
| O=C1NCN(c2ccccc2)C12CCN(CCCN1CCN(CCOC(c3ccccc3)c3ccccc3)CC1)CC2 | 5.88 µM | 3.86 µM | 7.45 µM | 6.51 µM | 2.04 µM | 7 µM | 4.68 µM | 5.97 µM | 7.24 µM | 2.46 µM | 7.69 µM | 2.35 µM | 2.48 µM | 2.42 µM | 4.31 µM | 2.26 µM | 7.14 µM | 4.39 µM | 7.46 µM | 2.12 µM |
| CC(=O)NC(CS)C(=O)NC(CO)C(=O)NC(CO)C(=O)NC(Cc1c[nH]c2ccccc12)C(=O)N1CCCC1C(=O)NC(CO)C(=O)NC(Cc1c[nH]c2ccccc12)C(=O)NC(Cc1c[nH]cn1)C(=O)NC(CO)C(=O)NC(Cc1c[nH]c2ccccc12)C(=O)NCC(=O)NCC(=O)NC(C)C(=O)NC(CCC(N)=O)C(=O)NC(CCCCN)C(=O)NC(C)C(=O)NC(CCCNC(=N)N)C(=O)NC(CCCCN)C(N)=O (stereo not given) (Ac-CSSWPSWHSWGGAQKARK-NH2; configuration not given here) | > 50 µM | > 50 µM | 35.5 µM | > 50 µM | 43.4 µM | > 50 µM | 24.9 µM | 32.1 µM | > 50 µM | > 50 µM | > 50 µM | 22.4 µM | > 50 µM | 20.9 µM | 34.5 µM | 28.2 µM | > 50 µM | > 50 µM | 48.8 µM | > 50 µM |
| Cc1ccc(C(=O)C2C=C(c3ccc(C)cc3)SC3C=CCC32)cc1 (stereo not given) | 47.7 µM | 36.4 µM | 37.3 µM | 32.3 µM | 58.2 µM | > 100 µM | 37.7 µM | 30.3 µM | 97.6 µM | 30 µM | 39.4 µM | 29.2 µM | 32.2 µM | 33.9 µM | > 100 µM | 38 µM | 33.1 µM | 29.6 µM | 53 µM | 32.3 µM |
| C=CC(=C)CCC(Br)C(C)(C)Br (stereo not given) | > 100 µM | > 100 µM | > 100 µM | > 100 µM | > 100 µM | > 100 µM | > 100 µM | > 100 µM | > 100 µM | > 100 µM | > 100 µM | > 100 µM | > 100 µM | > 100 µM | 55.1 µM | > 100 µM | > 100 µM | > 100 µM | > 100 µM | > 100 µM |
| NC1=Nc2ccccc2Sc2nccn21 | 91 µM | 32.8 µM | > 100 µM | > 100 µM | 80.8 µM | > 100 µM | 56.5 µM | 69.9 µM | > 100 µM | 59 µM | 65 µM | 33.6 µM | 56.1 µM | > 100 µM | 45 µM | 35.4 µM | > 100 µM | 63.9 µM | 52.2 µM | 59.7 µM |
| Cc1cc(-c2nc3ccc(F)cc3s2)ccc1NC(=O)C(N)CCCCN (stereo not given) | 25.6 µM | 6.57 µM | 5.64 µM | 22.3 µM | 8.18 µM | 26.2 µM | 25.3 µM | 4.87 µM | 26.5 µM | 5.34 µM | 22.7 µM | 20.4 µM | 7.75 µM | 34.8 µM | 9.78 µM | 14.8 µM | 21.3 µM | 16.1 µM | 18.5 µM | 5 µM |
| CCN(CC)CCOCCOCC1(c2ccc(Cl)c(Cl)c2)CCCCC1 | 28.5 µM | 3.29 µM | 13.3 µM | 28.8 µM | 26.8 µM | 22.1 µM | 17.6 µM | 17.3 µM | 23 µM | 13.6 µM | 23.3 µM | 4.88 µM | 24.8 µM | 12.3 µM | 21 µM | 11.9 µM | 24.9 µM | 12.9 µM | 24.5 µM | 13.8 µM |

From PubChem BioAssay (NCI)
